In patent US10292976B2, “Anti-malarial agent” (RIKEN, priority 2014, dated 2019):
pIC50: −log10 of the molar value. Where two headings read alike, the source gives them in different places.

What was measured:
[1] = system: Plasmodium falciparum: 3D7 strain; test: Antimalarial activity by LDH assay, 3D7 strain; format: cell-based; details: for pIC50: Plasmodium falciparum
Experimental: Compounds that chelate metal ions in various modes (L1 to L25 in FIG. 1) were selected, and their antimalarial activities were evaluated by LDH assay. Since infection with malaria causes an increase in the LDH activity, the evaluation can be made based on the criteria that the lower the detected LDH activity, the higher the antimalarial activity.
(§1) The LDH assay was carried out according to the following procedure. That is, 0.5 μL of a solution of each compound in DMSO was added to 100 μL of a culture liquid of erythrocytes (88% RPMI solution; 2% erythrocytes, provided by the Japanese Red Cross Society; and 10% human serum, provided by the Japanese Red Cross Society) infected with falciparum malaria parasites (Plasmodium falciparum: 3D7 strain) (infection rate of erythrocytes, 0.3%). The resulting culture liquid was subjected to culture in a 96-well plate under an atmosphere of 5% CO2, 5% O2, and 90% N2 at 37° C. for three days. Subsequently, the culture liquid was cooled at −80° C. for three hours, and then returned to room temperature. After addition of 150 μL of an LDH enzyme reaction liquid (0.15 mg/mL diaphorase, 37.5 μL/mL of 50% sodium lactate, 0.17 mg/mL NBT, 0.11 mg/mL APAD, 0.16 mL/mL of 1 M Tris-HCl (pH 8), and 8.3 μL/mL of Tween 20), the absorbance at 620 nm was measured.
By the same procedure as in Experiment 1, erythrocytes infected with malaria were treated with L6 (about 40 nM) together with iron ion (about 50 μM), copper ion (about 1 μM), or zinc ion (about 10 μM), and the antimalarial activity was evaluated by LDH assay.
(§2) According to the same procedure as in Experiment 1, the antimalarial activities of metal complexes (M-L6) synthesized by mixing various kinds of metal ions (MSO4: M=Zn, Fe, Cu, Co, Ni, or Mn) with L6 at a molar ratio of 1:1 were evaluated by LDH assay.

[2] = Cytotoxicity by WST-8 assay, HEK293T; format: cell-based; details: human, HEK293T cells
Experimental: (§3) After treating various kinds of cells (HEK293T: human embryonic kidney cells; HeLa: human cervical cancer cells; NIH3T3: mouse fibroblast cells; tsNRK: rat kidney cells; and 3Y1: rat fibroblasts) with a metal chelator for 48 hours, the cytotoxicities of the cells were evaluated by WST-8 assay.

[3] = system: mouse malaria parasites (Plasmodium berghei ANKA strain); test: Effect to suppress malaria infection in malaria-infected mice; format: in vivo; details: Balb/c mice, 20 mg/kg intraperitoneal injection, Day 2 to Day 6 after infection
Experimental: (§4) To mice (7 weeks old, Balb/c, male), erythrocytes infected with mouse malaria parasites (Plasmodium berghei ANKA strain) (total number of erythrocytes per mouse, about 10^7; rate of malaria-infected erythrocytes, 0.3%) were intraperitoneally injected. L6 was administered (20 mg/kg, intraperitoneal injection) to each of the thus obtained malaria-infected mice, and the rate of malaria-infected erythrocytes was measured. As a result, on Day 2 to Day 6 after the infection, the infection rate tended to increase in the negative control to which only DMSO was administered. […] The effect of L6 to reduce the infection rate was almost equivalent to the effect of an existing drug, chloroquine (CQ).

[4] = Cytotoxicity by WST-8 assay, tsNRK; format: cell-based; details: rat, tsNRK cells
Experimental: as §3

[5] = Cytotoxicity by WST-8 assay, HeLa; format: cell-based, human; details: human, HeLa cells
Experimental: as §3
(§5) Subsequently, the following cell types: HL60 (human promyelocytic leukemia cells), HeLa (human cervical cancer cells), C3H10T1/2 (murine multipotential mesenchymal cells), and HEK293 (human embryonic kidney 293 cells); were treated with metal complexes M-L6 (M=Zn, Fe, Cu, Co, Ni, and Mn) for 48 hours, and then subjected to WST-8 assay to perform evaluation of the cytotoxicity of each kind of metal complex.

[6] = system: drug-resistant malaria parasite K1 strain; test: Antimalarial activity by LDH assay, K1 strain; format: cell-based, Plasmodium falciparum; details: Plasmodium falciparum
Experimental: as §1, §2
According to the same procedure as in Experiment 1, the antimalarial activities of L18 and di-2-pyridylketone 4,4-dimethyl-3-thiosemicarbazone (Sigma) against the malaria parasite 3D7 strain and the drug-resistant malaria parasite K1 strain were evaluated by LDH assay.
According to the same procedure as in Experiment 1, the antimalarial activities of 4′-(4-Pyridyl)-2,2′:6′,2″-terpyridine (Tokyo Chemical Industry) against the malaria parasite 3D7 strain and the drug-resistant malaria parasite K1 strain were evaluated by LDH assay.

[7] = system: chloroquine-resistant strain; test: Antimalarial activity against a chloroquine-resistant strain; format: cell-based; details: result in words
[8] = system: human cells (HEK293T and HeLa); test: Cytotoxicity by WST-8 assay, summary for human cells; format: cell-based; details: 48 hours, read-out: concentration at which toxicity is exerted (IC50 value)
Experimental: as §3

[9] = Cytotoxicity by WST-8 assay, HEK293; format: cell-based, human; details: human, HEK293 cells, Table 3, 48 hours
Experimental: as §5

[10] = Cytotoxicity by WST-8 assay, NIH3T3; format: cell-based; details: mouse, NIH3T3 cells, NIH3T3, 48 hours
Experimental: as §3

[11] = Cytotoxicity by WST-8 assay, HL60; format: cell-based, human; details: human, HL60 cells, Table 3, 48 hours
Experimental: as §5

[12] = Cytotoxicity by WST-8 assay, 3Y1; format: cell-based; details: rat, 3Y1 cells, 3Y1, 48 hours
Experimental: as §3

[13] = system: mouse malaria parasites (Plasmodium berghei ANKA strain); test: Life-prolonging effect after infection with malaria, intraperitoneal; format: in vivo; details: malaria-infected mice, 20 mg/kg intraperitoneal injection
[14] = system: Dd2 strain (drug-resistant malaria parasites); test: Antimalarial activity by LDH assay, Dd2 strain; format: cell-based, Plasmodium falciparum; details: Plasmodium falciparum
[15] = system: mouse malaria parasites (Plasmodium berghei ANKA strain); test: Life-prolonging effect in malaria-infected mice, oral administration; format: in vivo; details: oral 200 mg/kg on Day 1, Day 3, and Day 6
Experimental: as §4
To malaria-infected mice obtained by the same procedure as in Experiment 4, an aqueous solution of L6 or the zinc complex Zn-L6 was orally administered (at a dose of 200 mg/kg on Day 1, Day 3, and Day 6; N=6), and changes in the number of surviving individuals were investigated. […] That is, it is thought that, by formation of metal complex with zinc ion, L6 can remarkably suppress the toxicity in vivo while sufficiently maintaining the antimalarial activity.

[16] = Cytotoxicity by WST-8 assay, C3H10T1/2; format: cell-based, murine; details: mouse, C3H10T1/2 cells, Table 3, 48 hours
Experimental: as §5

Compound: c1ccc(CN(Cc2ccccn2)Cc2ccccn2)nc1 [L6, Tris(2-pyridylmethyl)amine]
- antimalarial activity (LDH assay, FIG. 2) ([1]; 10 nM to 10 μM, result in words): remarkable antimalarial activity
- antimalarial activity of L6 together with added metal ion ([1]; L6 about 40 nM with excess zinc ion (about 10 μM)): suppression of the antimalarial activity was found to some extent
- pIC50 ([1]; 3D7, 3D7 strain, values in text, read-out: IC50 value for the antimalarial activity based on the LDH assay): ~7.51
- pIC50 ([1]; 3D7, read-out: IC50 antimalarial activity, 3D7): 7.08
- IC50 at 48 h ([2]; 1st measurement): 5080 nM
- IC50 at 48 h ([2]; 2nd measurement): 5310 nM
- rate of malaria-infected erythrocytes (infection rate) [3]: infection rate could be remarkably suppressed
- IC50 at 48 h ([4]; 1st measurement): 1880 nM
- IC50 at 48 h ([4]; 2nd measurement): 1900 nM
- IC50 at 48 h ([5]; HeLa, 48 hours, 1st measurement (Table 1), read-out: IC50 value, cytotoxicity): 5610 nM
- IC50 at 48 h ([5]; HeLa, 48 hours, 2nd measurement (Table 1), read-out: IC50 value, cytotoxicity): 5160 nM
- IC50 at 48 h ([5]; Table 3, 48 hours, WST-8, read-out: IC50 cytotoxicity, HeLa): 5800 nM
- pIC50 ([6]; read-out: IC50 antimalarial activity against the K1 strain): 6.80 to 7.10
- pIC50 ([6]; read-out: IC50 antimalarial activity, K1): 7.09
- antimalarial activity against a chloroquine-resistant strain [7]: exhibit antimalarial activity also against a chloroquine-resistant strain
- pIC50 [8]: 5.25 to 5.29
- IC50 at 48 h [9]: 6000 nM
- IC50 at 48 h ([10]; 1st measurement): 1800 nM
- IC50 at 48 h ([10]; 2nd measurement): 1950 nM
- IC50 at 48 h [11]: 1800 nM
- IC50 at 48 h ([12]; 1st measurement): 2420 nM
- IC50 at 48 h ([12]; 2nd measurement): 3870 nM
- life-prolonging effect (number of surviving individuals) [13]: remarkable life-prolonging effect
- pIC50 ([14]; DD2, read-out: IC50 antimalarial activity against the Dd2 strain): 6.80 to 7.10
- pIC50 ([14]; DD2, read-out: IC50 antimalarial activity, Dd2): 6.84
- toxicity in vivo [15]: influence of toxicity appears
- IC50 at 48 h [16]: 5700 nM
